Active and inactive are the calls of the source. The rule behind the calls is not given here.
Assays:
HK-2 = experiment: Antiproliferative activity against human HK-2 cells incubated for 48 hrs by MTT assay; format: functional, cell-based; conditions: HK-2, 48 h
T-24 [1] = experiment: Induction of cell cycle arrest at S phase in human T24 cells at 2 uM incubated for 24 hrs by flow cytometry (reference value: 12.39 %); format: functional
MGC-803 = experiment: Antiproliferative activity against human MGC-803 cells incubated for 48 hrs by MTT assay; format: functional, cell-based; conditions: MGC-803, 48 h
T-24 [2] = experiment: Antiproliferative activity against human T24 cells incubated for 48 hrs by MTT assay; format: functional, cell-based; conditions: T-24, 48 h
[3] = Toxicity in nude mouse model xenografted with human HepG2 cells assessed as pathological change in heart at 15 mg/kg, ip administered once every two days for 21 days; format: organism-based; conditions: in vivo, 504 h, time 21 day
A549/CDDP = experiment: Antiproliferative activity against human A549/DDP cells incubated for 48 hrs by MTT assay; format: functional, cell-based
T-24 [4] = experiment: Induction of ferroptosis in human T24 cells assessed as increase in iron level at 5 uM incubated for 24 hrs by FerrOrange probe based confocal microscopy; format: functional, cell-based
T-24 [5] = experiment: Induction of cell cycle arrest at G2/M phase in human T24 cells at 2 uM incubated for 24 hrs by flow cytometry (reference value: 12.30 %); format: functional
T-24 [6] = experiment: Upregulation of fatty acid metabolism in human T24 cells at 5 uM incubated for 24 hrs by KEGG analysis; format: functional, cell-based
T-24 [7] = experiment: Induction of ferroptosis in human T24 cells assessed as increase in iron level at 5 uM incubated for 24 hrs in presence of DFO by FerrOrange probe based confocal microscopy; format: functional, cell-based
T-24 [8] = experiment: Antitumor activity against human T24 cells assessed as effect on ferroptosis signaling pathway at 5 uM incubated for 24 hrs by TMT/iTRAQ analysis; format: functional, cell-based
T-24 [9] = experiment: Induction of cell cycle arrest at S phase in human T24 cells at 5 uM incubated for 24 hrs by flow cytometry (reference value: 12.39 %); format: functional
[10] = Toxicity in nude mouse model xenografted with human HepG2 cells assessed as pathological change in spleen at 15 mg/kg, ip administered once every two days for 21 days; format: organism-based; conditions: in vivo, 504 h, time 21 day
HepG2 [11] = experiment: Antiproliferative activity against human HepG2 cells incubated for 48 hrs by MTT assay; format: functional, cell-based; conditions: HepG2, 48 h
T-24 [12] = experiment: Induction of ferroptosis in human T24 cells assessed as smaller mitochondria at 5 uM incubated for 24 hrs by TEM analysis; format: functional, cell-based
[13] = Toxicity in nude mouse model xenografted with human T24 cells assessed as pathological change in spleen at 15 mg/kg, ip administered once every two days for 21 days; format: organism-based, T-24; conditions: in vivo, 504 h, time 21 day
T-24 [14] = experiment: Induction of autophagy in human T24 cells at 5 uM incubated for 24 hrs by KEGG analysis; format: functional, cell-based
T-24 [15] = experiment: Induction of ferroptosis in human T24 cells assessed as increase in superoxide anion level at 5 uM incubated for 24 hrs by DHE probe based analysis; format: functional, cell-based
T-24 [16] = experiment: Antitumor activity against human T24 cells assessed as effect on MAPK signaling pathway at 5 uM incubated for 24 hrs by TMT/iTRAQ analysis; format: functional, cell-based
T-24 [17] = experiment: Induction of cell cycle arrest at G0/G1 phase in human T24 cells at 8 uM incubated for 24 hrs by flow cytometry (reference value: 75.31 %); format: functional
[18] = Toxicity in nude mouse model xenografted with human HepG2 cells assessed as pathological change in lung at 15 mg/kg, ip administered once every two days for 21 days; format: organism-based; conditions: in vivo, 504 h, time 21 day
T-24 [19] = experiment: Induction of apoptosis in human T24 cells at 5 uM incubated for 24 hrs by KEGG analysis; format: functional, cell-based
T-24 [20] = experiment: Induction of ferroptosis in human T24 cells assessed as ruptured mitochondria at 5 uM incubated for 24 hrs by TEM analysis; format: functional, cell-based
T-24 [21] = experiment: Induction of ferroptosis in human T24 cells at 5 uM incubated for 24 hrs by KEGG analysis; format: functional, cell-based
T-24 [22] = experiment: Induction of cell cycle arrest at G0/G1 phase in human T24 cells at 2 uM incubated for 24 hrs by flow cytometry (reference value: 75.31 %); format: functional
T-24 [23] = experiment: Induction of ferroptosis in human T24 cells assessed as decrease in GPX4 level at 5 uM incubated for 24 hrs by Western blot analysis; format: functional, cell-based
HUVEC = experiment: Antiproliferative activity against HUVEC cells incubated for 48 hrs by MTT assay; format: functional, cell-based; conditions: Homo sapiens
T-24 [24] = experiment: Anti-migratory activity against human T24 cells incubated upto 48 hrs by wound healing assay; format: functional, cell-based
A549 = experiment: Antiproliferative activity against human A549 cells incubated for 48 hrs by MTT assay; format: functional, cell-based
T-24 [25] = experiment: Induction of cell cycle arrest at G2/M phase in human T24 cells at 5 uM incubated for 24 hrs by flow cytometry (reference value: 12.30 %); format: functional
HepG2 [26] = experiment: Antiproliferative activity against human HepG2 cells xenografted in nude mouse model assessed as tumor inhibition rate at 15 mg/kg, ip administered once every two days for 21 days relative to control; format: functional; conditions: HepG2, 504 h, time 21 day
T-24 [27] = experiment: Induction of cell cycle arrest at G0/G1 phase in human T24 cells at 5 uM incubated for 24 hrs by flow cytometry (reference value: 75.31 %); format: functional
T-24 [28] = experiment: Induction of cell cycle arrest at G1/S phase in human T24 cells incubated for 24 hrs by flow cytometry; format: functional, cell-based; conditions: dose 2-8 µM
T-24 [29] = experiment: Downregulation of mTOR level in human T24 cells at 2 to 8 uM incubated for 24 hrs by Western blot analysis; format: functional, cell-based; conditions: dose 2-8 µM
T-24 [30] = experiment: Induction of ferroptosis in human T24 cells assessed as increase in FACL4 level at 5 uM incubated for 24 hrs by Western blot analysis; format: functional, cell-based
T-24 [31] = experiment: Downregulation of pAKT1 at S473 level in human T24 cells at 2 to 8 uM incubated for 24 hrs by Western blot analysis; format: functional, cell-based; conditions: dose 2-8 µM
T-24 [32] = experiment: Induction of ferroptosis in human T24 cells assessed as increase in mitochondrial membrane density at 5 uM incubated for 24 hrs by TEM analysis; format: functional, cell-based
T-24 [33] = experiment: Induction of apoptosis in human T24 cells assessed as increase in cleaved PARP level at 2 to 8 uM incubated for 24 hrs by Western blot analysis; format: functional, cell-based; conditions: dose 2-8 µM
T-24 [34] = experiment: Induction of ferroptosis in human T24 cells assessed as increase in lipid peroxide level at 5 uM incubated for 24 hrs by fluorescence based analysis; format: functional, cell-based
T-24 [35] = experiment: Anti-migratory activity against human T24 cells at 5 uM incubated upto 48 hrs in presence of FR180204 by wound healing assay; format: functional, cell-based
[36] = Toxicity in nude mouse model xenografted with human T24 cells assessed as pathological change in lung at 15 mg/kg, ip administered once every two days for 21 days; format: organism-based, T-24; conditions: in vivo, 504 h, time 21 day
T-24 [37] = experiment: Anti-migratory activity against human T24 cells at 1 to 10 uM incubated upto 48 hrs by wound healing assay; format: functional, cell-based; conditions: dose 1-10 µM
T-24 [38] = experiment: Induction of autophagy in human T24 cells assessed as appearance of autophagic vesicles at 5 uM incubated for 48 hrs by TEM analysis; format: functional, cell-based
[39] = Toxicity in nude mouse model xenografted with human HepG2 cells assessed as pathological change in liver at 15 mg/kg, ip administered once every two days for 21 days; format: organism-based; conditions: in vivo, 504 h, time 21 day

- IC50 (MGC-803): 5.23 µM
- IC50 (HepG2 [11]): 3.6 µM
Structure (SMILES): CN(C)CCN1C(=O)c2cccc3c(N4CCN(C(=S)SCc5ccccc5)CC4)ccc(c23)C1=O
- IC50 (HK-2): 14.9 µM
- Activity (T-24 [1]): 36.93%
- IC50 (T-24 [2]): 3.03 µM
- Activity [3]: Non-Toxic
- Activity (A549/CDDP): Active
- Activity (T-24 [4]): Active
- Activity (T-24 [5]): 20.7%
- Activity (T-24 [6]): Active
- Activity (T-24 [7]): inactive
- Activity (T-24 [8]): Active
- Activity (T-24 [9]): 30.58%
- Activity [10]: Non-Toxic
- Activity (T-24 [12]): Active
- Activity [13]: Non-Toxic
- Activity (T-24 [14]): Active
- Activity (T-24 [15]): Active
- Activity (T-24 [16]): Active
- Activity (T-24 [17]): 70.18%
- Activity [18]: Non-Toxic
- Activity (T-24 [19]): Active
- Activity (T-24 [20]): Active
- Activity (T-24 [21]): Active
- Activity (T-24 [22]): 42.37%
- Activity (T-24 [23]): Active
- IC50 (HUVEC): 16.7 µM
- Activity (T-24 [24]): Dose-Dependent Effect
- Activity (A549): Active
- Activity (T-24 [25]): 18.36%
- inhibition in vivo at 15 mg/kg (HepG2 [26]): 50%
- Activity (T-24 [27]): 51.06%
- Activity (T-24 [28]): Dose-Dependent Effect
- Activity (T-24 [29]): Active
- Activity (T-24 [30]): Active
- Activity (T-24 [31]): Active
- Activity (T-24 [32]): Active
- Activity (T-24 [33]): Active
- Activity (T-24 [34]): Active
- Activity (T-24 [35]): inactive
- Activity [36]: Non-Toxic
- Activity (T-24 [37]): Active
- Activity (T-24 [38]): Active
- Activity [39]: Non-Toxic

Source: ChEMBL document CHEMBL5532646, “Discovery of 4-(N-dithiobenzyl piperazine)-1,8-naphthalimide as a potent multi-target antitumor agent with good efficacy, limited toxicity, and low resistance” (Eur J Med Chem, 2024)
